Experimental data: patent publication US12655156B2, “Oxadiazolopyrazines and oxadiazolopyridines useful as mitochondrial uncouplers” (Virginia Tech Intellectual Properties, Inc., priority 2018, dated 2026)

system: whole cells (NMuLi, C2C12, and L6 cells, isolated cardiomyocytes, human primary fibroblasts); assay: Oxygen consumption rate (OCR) in whole cells, Seahorse XF-24 Flux Analyzer; assay type: cell-based; settings: increase in OCR; binned EC50 values
Protocol: Biological activities of the compounds synthesized is determined by determining increase in oxygen consumption rate (OCR).
Oxygen consumption rate (OCR) in whole cells is measured in general accordance with the method of Kenwood B M et al. (Mol. Met. (2014) 3:114-123).
OCR is measured using a Seahorse XF-24 Flux Analyzer (Seahorse Biosciences, North Billerica, MA). NMuLi, C2C12, and L6 cells are seeded in a Seahorse 24-well tissue culture plate at a density of 3.5×10^4 cells/well, isolated cardiomyocytes at a density of 4×10^4 cells/well, and human primary fibroblasts at a density of 1.1×10^4 cells/well. The cells are then allowed to adhere for 24 h. Prior to the assay, the media is changed to unbuffered DMEM containing pyruvate and glutamine (Gibco #12800-017, pH=7.4 at 37° C.) and the cells are equilibrated for 30 mins at 37°° C. Compounds are injected during the assay and OCR is measured using 2 min measurement periods.
2-3 wells are used per condition and averaged over three plates (n=6-9). Statistical significance is determined by two-way ANOVA with Bonferroni's posttest.
Activities are reported as binned EC50 values: A=5 μM or less; B=>5 to 20 μM; C=over 20 μM; NA=not active.

| Structure (SMILES) | EC50 [µM] |
| --- | --- |
| Oc1nc2nonc2nc1Nc1ccc2c(c1)OCO2 [1-87, 6-(benzo[d][1,3]dioxol-5-ylamino)-[1,2,5]oxadiazolo[3,4-b]pyrazin-5-ol] | > 20 |
| Oc1nc2nonc2nc1Nc1cccc(-c2ccccc2)c1 [1-104, 6-([1,1′-biphenyl]-3-ylamino)-[1,2,5]oxadiazolo[3,4-b]pyrazin-5-ol] | ≤ 5 |
| Oc1nc2nonc2nc1Nc1cccc(-c2cccc(C(F)(F)F)c2)c1 [1-135, 6-((3′-(trifluoromethyl)-[1,1′-biphenyl]-3-yl)amino)-[1,2,5]oxadiazolo[3,4-b]pyrazin-5-ol] | ≤ 5 |
| Oc1nc2nonc2nc1Nc1cccc(F)c1F [1-14, 6-((2,3-Difluorophenyl)amino)-[1,2,5]oxadiazolo[3,4-b]pyrazin-5-ol] | 5 to 20 |
| Oc1nc2nonc2nc1Nc1ccc2ccccc2c1 [1-44, 6-(Naphthalen-2-ylamino)-[1,2,5]oxadiazolo[3,4-b]pyrazin-5-ol] | ≤ 5 |
| Oc1nc2nonc2nc1Nc1ccc(OC(F)(F)F)cc1 [1-10, 6-((4-(Trifluoromethoxy)phenyl)amino)-[1,2,5]oxadiazolo[3,4-b]pyrazin-5-ol] | 5 to 20 |
| CC(Nc1nc2nonc2nc1O)C12CC3CC(CC(C3)C1)C2 [1-83, 6-((1-((1S,3S)-adamantan-1-yl)ethyl)amino)-[1,2,5]oxadiazolo[3,4-b]pyrazin-5-ol] | 5 to 20 |
| Oc1nc2nonc2nc1Nc1ccc(-c2ccc(C(F)(F)F)nc2)cc1 [1-107, 6-((4-(6-(trifluoromethyl)pyridin-3-yl)phenyl)amino)-[1,2,5]oxadiazolo[3,4-b]pyrazin-5-ol] | 5 to 20 |
| Oc1nc2nonc2nc1Nc1ccc(-c2ccc(F)cc2)c(F)c1 [1-125, 6-((2,4′-difluoro-[1,1′-biphenyl]-4-yl)amino)-[1,2,5]oxadiazolo[3,4-b]pyrazin-5-ol] | ≤ 5 |
| Oc1nc2nonc2nc1Nc1ccc(SC(F)(F)F)cc1 [1-25, 6-((4-((Trifluoromethyl)thio)phenyl)amino)-[1,2,5]oxadiazolo[3,4-b]pyrazin-5-ol] | ≤ 5 |
| Oc1nc2nonc2nc1Nc1cccc(-c2ccc(F)c(C(F)F)c2)c1 [1-114, 6-((3′-(difluoromethyl)-4′-fluoro-[1,1′-biphenyl]-3-yl)amino)-[1,2,5]oxadiazolo[3,4-b]pyrazin-5-ol] | ≤ 5 |
| Oc1nc2nonc2nc1Nc1ccc(-c2ccc3c(c2)OCO3)cc1 [1-122, 6-((4-(benzo[d][1,3]dioxol-5-yl)phenyl)amino)-[1,2,5]oxadiazolo[3,4-b]pyrazin-5-ol] | > 20 |
| Cc1ccc(Nc2nc3nonc3nc2O)cc1C [1-60, 6-((3,4-Dimethylphenyl)amino)-[1,2,5]oxadiazolo[3,4-b]pyrazin-5-ol] | 5 to 20 |
| Oc1nc2nonc2nc1Nc1ccccc1 [1-52, 6-(Phenylamino)-[1,2,5]oxadiazolo[3,4-b]pyrazin-5-ol] | > 20 |
| Oc1nc2nonc2nc1Nc1ccc(OC(F)(F)C(F)F)cc1 [1-28, 6-((4-(1,1,2,2-Tetrafluoroethoxy)phenyl)amino)-[1,2,5]oxadiazolo[3,4-b]pyrazin-5-ol] | 5 to 20 |
| CC12CC3CC(C)(C1)CC(Nc1nc4nonc4nc1O)(C3)C2 [1-82, 6-(((1R,3R,5S,7R)-3,5-dimethyladamantan-1-yl)amino)-[1,2,5]oxadiazolo[3,4-b]pyrazin-5-ol] | ≤ 5 |
| CCCCCCCCNc1nc2nonc2nc1O [1-74, 6-(octylamino)-[1,2,5]oxadiazolo[3,4-b]pyrazin-5-ol] | ≤ 5 |
| Oc1nc2nonc2nc1Nc1ccc(-c2ccc(F)cc2)cc1F [1-124, 6-((3,4′-difluoro-[1,1′-biphenyl]-4-yl)amino)-[1,2,5]oxadiazolo[3,4-b]pyrazin-5-ol] | ≤ 5 |
| Oc1nc2nonc2nc1Nc1ccc(-c2cccc(OC(F)(F)F)c2)cc1 [1-111, 6-((3′-(trifluoromethoxy)-[1,1′-biphenyl]-4-yl)amino)-[1,2,5]oxadiazolo[3,4-b]pyrazin-5-ol] | 5 to 20 |
